# In patent US12290519B2, “Anti-inflammatory coupling compound drug, and preparation method therefor and use thereof” (COVAL BIOPHARMA (SHANGHAI) CO., LTD., priority 2021, dated 2025):
# Test: Hydrolysis rate / drug release rate of the compounds (release of JAK inhibitor, HPLC)
# Type: physicochemical
# Details: % release of JAK inhibitor from sample in acetonitrile/water=7/3 (v/v), 37° C. constant temperature shaker, sampled days 1-4, HPLC
# Method in brief: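 HPLC quantified parent JAK inhibitor freed from each compound, calibrated with 0.0002–0.08 mg/mL standards. Samples in acetonitrile/water 7/3 were kept sealed at 37° C and analysed at day 0 and on days 1 to 4. % release was computed from sample weight, curve slope/intercept and the molecular-weight ratio.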
row,SMILES,Release Rate (%/day)
1,"CCS(=O)(=O)N1CC(CC#N)(n2cc(-c3ncnc4c3ccn4C(=O)c3ccccc3Nc3cccc(C)c3C)cn2)C1 [Ex. 47, 2-(3-(4-(7-(2-((2,3-Dimethylphenyl)amino)benzoyl)-7H-pyrrolo [2,3-d]pyrimidin-4-yl)-1H-pyrazol-1-yl)-1-(ethylsulfonyl)azetidin-3-yl) acetonitrile]",0.36
2,COc1ccc2cc([C@H](C)C(=O)n3ccc4c(-c5cnn([C@H](CC#N)C6CCCC6)c5)ncnc43)ccc2c1 [Ex. 31],3.08
3,"C[C@@H]1CCN(C(=O)CC#N)C[C@@H]1N(C)c1ncnc2c1ccn2COC(=O)Cc1ccccc1Nc1c(Cl)cccc1Cl [Ex. 51, (4-(((3R, 4R)-1-(2-cyanoacetyl)-4-methylpiperidin-3-yl) (methyl)amino)-7H-pyrrolo [2,3-d]pyrimidin-7-yl) methyl 2-(2-((2,6-dichlorophenyl)amino)phenyl) acetate]",0.35
4,"CCC(C(=O)n1ccc2c(N(C)C3CCC(CS(=O)(=O)NC)CC3)ncnc21)c1ccc(N2Cc3ccccc3C2=O)cc1 (stereo not drawn) [Ex. 35, N-methyl-1-((trans)-4-(methyl (7-(2-(4-(1-oxoisoindolin-2-yl)phenyl)butanoyl)-7H-pyrrolo [2,3-d]pyrimidin-4-yl)amino)cyclohexyl) methanesulfonamide]",4.57
5,"CNS(=O)(=O)C[C@H]1CC[C@H](N(C)c2ncnc3c2ccn3C(=O)[C@@H](NC(=O)OC(C)(C)C)c2ccccc2)CC1 [Ex. 46, tert-butyl ((S)-2-(4-(methyl ((trans)-4-((N-methylsulfamoyl)methyl)cyclohexyl)amino)-7H-pyrrolo [2,3-d]pyrimidin-7-yl)-2-oxo-1-phenylethyl) carbamate]",25.52
6,"CCC(C(=O)OCn1ccc2c(N(C)[C@H]3CN(C(=O)CC#N)CC[C@H]3C)ncnc21)c1ccc(N2Cc3ccccc3C2=O)cc1 (stereo partly drawn) [Ex. 65, (4-(((3R, 4R)-1-(2-cyanoacetyl)-4-methylpiperidin-3-yl) (methyl)amino)-7H-pyrrolo [2,3-d]pyrimidin-7-yl) methyl 2-(4-(1-oxoisoindol-2-yl)) phenyl) butanoate]",0.01
7,"CC(C(=O)n1ccc2c(N(C)[C@H]3CN(C(=O)CC#N)CC[C@H]3C)ncnc21)c1cccc(C(=O)c2ccccc2)c1 (stereo partly drawn) [Ex. 7, 3-((3R,4R)-3-((7-(2-(3-benzoylphenyl)propanoyl)-7H-pyrrolo[2,3-d]pyrimidin-4-yl) (methyl)amino)-4-methylpiperidin-1-yl)-3-oxopropanenitrile]",15.65
8,"CCC(C(=O)n1ccc2c(-c3cnn(C4(CC#N)CN(S(=O)(=O)CC)C4)c3)ncnc21)c1ccc(N2Cc3ccccc3C2=O)cc1 (stereo not shown) [Ex. 30, 2-2-(1-(Ethylsulfonyl)-3-(4-(7-(2-(4-(1-oxoisoindolin-2-yl)phenyl)butanoyl)-7H-pyrrolo [2,3-d]pyrimidin-4-yl)-1H-pyrazol-1-yl)azetidin-3-yl) acetonitrile]",1.63
9,"CC(=O)Oc1ccccc1C(=O)OCn1ccc2c(N(C)[C@H]3CN(C(=O)CC#N)CC[C@H]3C)ncnc21 [Ex. 56, (4-(((3R, 4R)-1-(2-cyanoacetyl)-4-methylpiperidin-3-yl) (methyl)amino)-7H-pyrrolo [2,3-d]pyrimidin-7-yl) methyl 2-acetoxybenzoate]",0.07
10,"CNS(=O)(=O)CC1CCC(N(C)c2ncnc3c2ccn3C(=O)c2ccccc2Nc2cccc(Cl)c2C)CC1 (stereo not drawn) [Ex. 41, 1-((Trans)-4-((7-(2-((3-chloro-2-methylphenyl)amino)benzoyl)-7H-pyrrolo [2,3-d]pyrimidin-4-yl) (methyl)amino)cyclohexyl)-N-methyl methanesulfonamide]",4.27
11,"CCS(=O)(=O)N1CC(CC#N)(n2cc(-c3ncnc4c3ccn4C(=O)C(C)c3ccc(-c4ccccc4)c(F)c3)cn2)C1 (stereo not shown) [Ex. 20, 2-(1-(ethylsulfonyl)-3-(4-(7-(2-(2-fluoro-[1, 1′-biphenyl]-4-yl)propanoyl)-7H-pyrrolo [2,3-d]pyrimidin-4-yl)-1H-pyrazol-1-yl)azetidin-3-yl) acetonitrile]",5.06
12,"CCS(=O)(=O)N1CC(CC#N)(n2cc(-c3ncnc4c3ccn4C(=O)C(C)c3cccc(C(=O)c4ccccc4)c3)cn2)C1 (stereo not shown) [Ex. 19, 2-(3-(4-(7-(2-(3-benzoylphenyl)propanoyl)-7H-pyrrolo [2,3-d]pyrimidin-4-yl)-1H-pyrazol-1-yl)-1-(ethylsulfonyl)azetidin-3-yl) acetonitrile]",6.25
13,"C[C@@H]1CCN(C(=O)CC#N)C[C@@H]1N(C)c1ncnc2c1ccn2C(=O)[C@@H](NC(=O)OC(C)(C)C)c1ccccc1 [Ex. 16, Tert-butyl ((S)-2-(4-(((3R, 4R)-1-(2-cyanoacetyl)-4-methylpiperidin-3-yl) (methyl)amino)-7H-pyrrolo[2,3-d]pyrimidin-7-yl)-2-oxo-1-phenylethyl)carbamate]",39.31
14,"CCS(=O)(=O)N1CC(CC#N)(n2cc(-c3ncnc4c3ccn4C(=O)Cc3c(C)n(C(=O)c4ccc(Cl)cc4)c4ccc(OC)cc34)cn2)C1 [Ex. 23, 2-(3-(4-(7-(2-(1-(4-chlorobenzoyl)-5-methoxy-2-methyl-1H-indol-3-yl)acetyl)-7H-pyrrolo [2,3-d]pyrimidin-4-yl)-1H-pyrazol-1-yl)-1-(ethylsulfonyl)azetidin-3-yl) acetonitrile]",7.63
15,"CNS(=O)(=O)C[C@H]1CC[C@H](N(C)c2ncnc3c2ccn3C(=O)c2ccccc2Nc2cccc(C)c2C)CC1 [Ex. 43, 1-((trans)-4-((7-(2-((2,3-dimethylphenyl)amino)benzoyl)-7H-pyrrolo [2,3-d]pyrimidin-4-yl) (methyl)amino)cyclohexyl)-N-methyl methanesulfonamide]",2.99

# Results, then the molecule that gave them:
row,Release Rate (%/day),SMILES
1,11.67,"CC[C@@H]1CN(C(=O)NCC(F)(F)F)C[C@@H]1c1cnc2cnc3c(ccn3C(=O)c3ccccc3Nc3cccc(Cl)c3C)n12 [Ex. 130, (3R, 4S)-3-(3-(2-((3-chloro-2-methylphenyl)amino)benzoyl)-3H-imidazo [1,2-a]pyrrolo [2,3-e]pyrazin-8-yl)-4-ethyl-N-(2,2,2-trifluoroethyl) pyrrolidine-1-carboxamide]"
2,4.29,"CCC(C(=O)n1ccc2c(N3CC[C@]4(C3)[C@@H](C)CN4C(=O)CC#N)ncnc21)c1ccc(N2Cc3ccccc3C2=O)cc1 (stereo partly drawn) [Ex. 143, 3-((3S, 4R)-3-methyl-6-(7-(2-(4-(1-oxoisoindolin-2-yl)phenyl)butanoyl)-7H-pyrrolo [2,3-d]pyrimidin-4-yl)-1,6-diazaspiro [3.4]octan-1-yl)-3-oxopropanenitrile]"
3,0.01,"COc1ccc2cc([C@H](C)C(=O)OCn3ccc4c(-c5cnn([C@H](CC#N)C6CCCC6)c5)ncnc43)ccc2c1 [Ex. 87, (4-(1-((R)-2-cyano-1-cyclopentylethyl)-1H-pyrazol-4-yl)-7H-pyrrolo [2,3-d]pyrimidin-7-yl) methyl (S)-2-(6-methoxynaphthalen-2-yl) propanoate]"
4,3.02,"CC[C@@H]1CN(C(=O)NCC(F)(F)F)C[C@@H]1c1cnc2cnc3c(ccn3C(=O)[C@@H](C)c3ccc(CC(C)C)cc3)n12 [Ex. 123, (3S, 4R)-3-ethyl-4-(3-((S)-2-(4-isobutylphenyl)propanoyl)-3H-imidazo [1,2-a]pyrrolo [2,3-e]pyrazin-8-yl)-N-(2,2,2-trifluoroethyl) pyrrolidine-1-carboxamide]"
5,0.05,"CCC(C(=O)OCn1ccc2c(-c3cnn(C4(CC#N)CN(S(=O)(=O)CC)C4)c3)ncnc21)c1ccc(N2Cc3ccccc3C2=O)cc1 (stereo not shown) [Ex. 76, Methyl (4-(1-(3-(cyanomethyl)-1-(ethylsulfonyl)azetidin-3-yl)-1H-pyrazol-4-yl)-7H-pyrrolo [2,3-d]pyrimidin-7-yl) 2-(4-(1-oxoisoindolin-2-yl)phenyl) butanoate]"
6,<0.01,"CCS(=O)(=O)N1CC(CC#N)(n2cc(-c3ncnc4c3ccn4COC(=O)C(C)c3ccc(CC4CCCC4=O)cc3)cn2)C1 (stereo not shown) [Ex. 72, Methyl (4-(1-(3-(cyanomethyl)-1-(ethylsulfonyl)azetidin-3-yl)-1H-pyrazol-4-yl)-7H1-pyrrolo [2,3-d]pyrimidin-7-yl) 2-(4-((2-oxocyclopentyl)methyl)phenyl) propanoate]"
7,0.08,"CC(=O)Nc1ccc(CC(=O)OCn2ccc3c(-c4cnn([C@H](CC#N)C5CCCC5)c4)ncnc32)cc1 [Ex. 110, (R)-(4-(1-(2-cyano-1-cyclopentylethyl)-1H-pyrazol-4-yl)-7H-pyrrolo [2,3-d]pyrimidin-7-yl) methyl 2-(4-acetamidophenyl) acetate]"
8,15.32,"CCS(=O)(=O)N1CC(CC#N)(n2cc(-c3ncnc4c3ccn4COC3=C(C(=O)Nc4ncc(C)s4)N(C)S(=O)(=O)c4ccccc43)cn2)C1 [Ex. 122, 4-((4-(1-(3-(Cyanomethyl)-1-(ethylsulfonyl)azetidin-3-yl)-1H-pyrazol-4-yl)-7H-pyrrolo [2,3-d]pyrimidin-7-yl)methoxy)-2-methyl-N-(5-methylthiazol-2-yl)-2H-benzo [e] [1, 2] thiazine-3-carboxamide 1,1-dioxide]"
9,27.29,"CC(C)(C)OC(=O)N[C@H](C(=O)n1ccc2c(-c3cnn([C@H](CC#N)C4CCCC4)c3)ncnc21)c1ccccc1 [Ex. 80, Tert-butyl ((S)-2-(4-(1-((R)-2-cyano-1-cyclopentylethyl)-1H-pyrazol-4-yl)-7H-pyrrolo [2,3-d]pyrimidin-7-yl)-2-oxo-1-phenylethyl) carbamate]"
10,0.17,"CCC(C(=O)OCn1ccc2c(-c3cnn([C@H](CC#N)C4CCCC4)c3)ncnc21)c1ccc(N2Cc3ccccc3C2=O)cc1 (stereo partly drawn) [Ex. 105, (4-(1-((R)-2-cyano-1-cyclopentylethyl)-1H-pyrazol-4-yl)-7H-pyrrolo [2,3-d]pyrimidin-7-yl) methyl 2-(4-(1-oxoisoindolin-2-yl)phenyl) butanoate]"
